Series [1] concerns short-term antigen-specific T cell lines generated from PBMCs. The arrangement: key: +: ELISPOT: Immungenicity of the peptide shown by IFN-gamma ELISPOT analysis; * Highlights data from published resources; +*: * Highlights data from published resources. The note with it: marked * (published resources), cited from earlier work.
Series [2] shares this test system. Nature of the series: Interferon-γ ELISpot assay on short-term T cell lines. It is filed as cell-based, human. Further details: key: +: ELISPOT: Immungenicity of the peptide shown by IFN-gamma ELISPOT analysis; * Highlights data from published resources; +*: * Highlights data from published resources.
In series [3] the test system is peptide-specific T cell cultures. Briefly: T cell phenotyping and intracellular cytokine staining (flow cytometry). Format: cell-based, human. The arrangement: key: +: cytokine: Immunogenicity of the peptide shown by intracellular cytokine staining (IFN-gamma, TNF-alpha). The note with it: IFN-gamma, TNF-alpha. A general note: In flow cytometry, cells or beads pass a laser one at a time.

A further series deals with HPV16-positive cells. Briefly: Cytotoxicity assay (VITAL FR / live-cell imaging) with peptide-specific CD8+ T cells. Format: cell-based, human. Further details: key: +: cytotox: Ability of peptide-specific T cells to kill HPV16-positive cells. As for the experimental part:
The flow cytometry based VITAL FR cytotoxicity assay was used as published by Stanke et al. (Stanke et al., 2010) to assess whether peptide-specific T cells are able to specifically kill HPV-transformed target cells. Briefly, two HLA-A2^+ cell lines, a HPV16-negative (HPV16^−) control cell line (C33A) and a HPV16-positive (HPV16^+) target cell line (CaSki) were fluorescently labeled with either FarRed or CFSE and were co-incubated with peptide-specific CD8^+ T cells as effector cells. After 48 h co-incubation, the fluorescently labeled cells were analyzed by flow cytometry to determine the surviving cells and calculate the specific cytolytic function of the effector cells by the ratio of target and control cells.
CaSki and C33A cells were fluorescently labeled with CFSE and FarRed, respectively. Cells of both cell lines were harvested and resuspended in plain RPMI medium at a concentration of 1×10^6 cells/mL. For cell labeling, 5 μM CSFE were added to CaSki cells and 0.25 μM FarRed were added to C33A cells. The cells were incubated at 37° C. and the reaction was stopped after 10 min by addition of 50 mL RPMI with 10% FBS. The cells were centrifuged at 300 xg for 5 min, the supernatant was discarded and the cells were resuspended in their cell culture medium. The labeled cells were seeded in T25 cell culture flasks with 1-2×10^6 cells/flask.
On the next day, the labeled CaSki and C33A as well as the epitope-specific semi-long-term T cell lines (described in 1.6) were harvested. CD8^+ T cells were isolated from the epitope-specific semi-long-term T cell lines using the MACS CD8^+ T cell isolation kit (Miltenyi Biotec) according to the manufacturer's protocol for LS columns. The CD8^+ T cells were resuspended in T cell medium and added to wells of a F-bottom 96-well plate in serial dilutions to achieve triplicates of 6×10^4, 3×10^4, 1.5×10^4, 0.75×10^4 and 0.375×10^4 cells per well. The CaSki and C33A cells were mixed 1:1 in T cell medium and 3×10^3 cells were added to each well containing T cells. Thereby effector:target (E:T) ratios of […] were achieved. Additionally, triplicates of mixed target cells without T cells were seeded, which is referred to as E:T 0. After 48 h incubation at 37° C., 5% CO2, the cells were harvested and analyzed at a BD FACS Canto™ II analyzer using the BD FACS Diva Software Version 6. The obtained data were analyzed with the FlowJo software Version 10 by applying the same gating strategy to all samples. Subsequently, the equations (1) and (2) given below were applied in Excel (Microsoft Office 2016) to calculate specific killing.
Semi long-term T cell lines were set up to obtain high numbers of T cells, which are required for the analysis of epitope specific cytotoxic T cell responses in VITAL FR cytotoxicity assays. Autologous DCs were generated from PBMCs as described in 1.7 and loaded with the desired HPV16 peptide. PBMCs of the same donor were thawed and resuspended in T cell medium supplemented with rhIL-7 (10 ng/mL) and rhIL-15 (20 ng/mL). 1×10^7 PBMCs/well were seeded to a 24-well plate in a total volume of 1 mL/well. Peptide-loaded DCs were added in a ratio of 50:1 (PBMCs:DCs) in 1 mL rhIL-7 (10 ng/mL) and rhIL-15 (20 ng/mL) supplemented T cell medium to achieve a final volume of 2 mL. The cell cultures were fed with rhIL-2 (final concentration: 40 U/mL) every other day. If the medium turned yellow the feeding was combined with a half medium change with 1 mL fresh IL-2 supplemented T cell medium. After eight days, the peptide stimulation with peptide-loaded DCs was repeated and cultivation was continued. On day 15, the T cell lines were harvested and used for CD8^+ T cell isolation and cytotoxicity assays.
In addition to the VITAL FR assay described herein above, a newly established live-cell imaging-based cytotoxicity assay was applied. […]

Like-named read-outs stand apart in the source and are kept apart here. No end group written: not given here.

“1 (ISEYRHYCY; Human papillomavirus 16) [compound 1]”: the ELISpot result in series [1] (HLA restriction A01) was “+*”.

Regarding “2 (HGDTPTLHEY; Human papillomavirus 16) [compound 2]”, the ELISpot result in series [1] (HLA restriction A01) was “+*”.

Consider “34 (CVYCKQQLLR; Human papillomavirus 16) [compound 34]”, for which the ELISpot result in series [1] (HLA restriction A11) is recorded as “*”; in series [2] (HLA restriction A03), “+”.

In the case of “39 (FAFRDLCIVYR; Human papillomavirus 16) [compound 39]”, the cytokine entry in series [3] (HLA restriction A11) was “+”. Also, the ELISpot result in series [2] (HLA restriction A11) is on record as “+”.

“40 (AFRDLCIVYR; Human papillomavirus 16) [compound 40]”: the cytokine result in series [3] (HLA restriction A11) is reported as “+”. In addition, the ELISpot result in series [2] (HLA restriction A11) is reported as “+”.

For the substance “41 (IVYRDGNPY; Human papillomavirus 16) [compound 41]”, the cytokine result in series [3] (HLA restriction A11) is given as “+”. The ELISpot entry in series [2] (HLA restriction A11) is “+”.

“42 (NPYAVCDKCLK; Human papillomavirus 16) [compound 42]”: the cytokine entry in series [3] (HLA restriction A11) was “+”. For the same substance, the ELISpot entry in series [2] (HLA restriction A11) is recorded as “+”.

With “43 (AVCDKCLKFY; Human papillomavirus 16) [compound 43]”, the ELISpot entry in series [1] (HLA restriction A11) is on record as “+*”; in series [2] (HLA restriction A03), “+”; in series [2] (HLA restriction B15), “+”. Also, the cytokine result in series [3] (HLA restriction A03), in series [3] (HLA restriction A11) and in series [3] (HLA restriction B15) was “+” throughout.

Turning to “44 (AVCDKCLKFYS; Human papillomavirus 16) [compound 44]”, the cytokine result in series [3] (HLA restriction A11) is on record as “+”. Further, in series [2] (HLA restriction A11), the ELISpot entry is given as “+”.

As for “45 (VCDKCLKFYSK; Human papillomavirus 16) [compound 45]”, the cytokine entry in series [3] (HLA restriction A11) is reported as “+”. Also, in series [2] (HLA restriction A11), the ELISpot entry is “+”.

As for “46 (GIVCPICSQK; Human papillomavirus 16) [compound 46]”, the cytokine result in series [3] (HLA restriction A03) was “+”. The ELISpot entry in series [2] (HLA restriction A03) is recorded as “+”.

Regarding “55 (DLLIRCINCQK; Human papillomavirus 16) [compound 55]”, the cytokine result in series [3] (HLA restriction A11) is recorded as “+”. Also, the ELISpot result in series [2] (HLA restriction A11) was “+”.

With “61 (RAHYNIVTF; Human papillomavirus 16) [compound 61]”, the ELISpot result was “+*” in series [1] (HLA restriction B07) and “+” in series [2] (HLA restriction B15).

In the case of “62 (TFCCKCDSTL; Human papillomavirus 16) [compound 62]”, the cytotox entry in the series on HPV16-positive cells (HLA restriction A24) is “+”. In series [2] (HLA restriction A24), the ELISpot entry is “+”.

Take “66 (PDRAHYNIVTF; Human papillomavirus 16) [compound 66]”: the cytokine entry in series [3] (HLA restriction A24) is “+”. Also, the ELISpot entry in series [2] (HLA restriction A24) was “+”.

“67 (DRAHYNIVTF; Human papillomavirus 16) [compound 67]”: in series [3] (HLA restriction A24), the cytokine result is given as “+”. In series [2] (HLA restriction A24), the ELISpot entry is “+”.

For the substance “68 (HYNIVTFCC; Human papillomavirus 16) [compound 68]”, in series [3] (HLA restriction A24), the cytokine entry is reported as “+”. The ELISpot entry in series [2] (HLA restriction A24) was “+”.

For “71 (HYCYSLYGTTL; Human papillomavirus 16) [compound 71]”, the cytokine entry in series [3] (HLA restriction A24) is “+”. The ELISpot result in series [2] (HLA restriction A24) is given as “+”.

“76 (RPRKLPQL; Human papillomavirus 16) [compound 76]”: the cytokine result in series [3] (HLA restriction B07) is recorded as “+”. The ELISpot entry in series [2] (HLA restriction B07) is on record as “+”.

Take “77 (TPTLHEYML; Human papillomavirus 16) [compound 77]”: the ELISpot result in series [1] (HLA restriction B07) is given as “*”.

Turning to “78 (RPRKLPQLCTE; Human papillomavirus 16) [compound 78]”, the cytokine entry in series [3] (HLA restriction B07) was “+”. For the same substance, the ELISpot result in series [2] (HLA restriction B07) was “+”.

Turning to “80 (NIRGRWTGRCM; Human papillomavirus 16) [compound 80]”, the cytokine entry in series [3] (HLA restriction B07) was “+”. The ELISpot entry in series [2] (HLA restriction B07) and in series [2] (HLA restriction B15) was “+” in each case.

Take “81 (EPDRAHYNIV; Human papillomavirus 16) [compound 81]”: in series [3] (HLA restriction B07), the cytokine entry is “+”. In addition, the ELISpot entry in series [2] (HLA restriction B07) is “+”.

As to “85 (KQQLLRREVY; Human papillomavirus 16) [compound 85]”, the cytokine entry in series [3] (HLA restriction B15) is given as “+”. For the same substance, the ELISpot entry in series [2] (HLA restriction B15) is given as “+”.

As for “86 (AFRDLCIVY; Human papillomavirus 16) [compound 86]”, in series [3] (HLA restriction B15), the cytokine entry is reported as “+”. Moreover, the ELISpot entry in series [2] (HLA restriction B15) is “+”.

For “87 (LQPETTDLY; Human papillomavirus 16) [compound 87]”, in series [1] (HLA restriction B15), the ELISpot entry is given as “+*”. In series [3] (HLA restriction B15), the cytokine result was “+”.

“88 (GQAEPDRAHY; Human papillomavirus 16) [compound 88]”: the cytokine entry in series [3] (HLA restriction B15) is on record as “+”. Moreover, in series [2] (HLA restriction B15), the ELISpot entry is recorded as “+”.

With “95 (YRHYCYSVY; Human papillomavirus 16) [compound 95]”, the cytokine entry in series [3] (HLA restriction B15) is “+”. Besides, the ELISpot entry in series [2] (HLA restriction B15) is “+”.

With “108 (KQRFHNIRGRW; Human papillomavirus 16) [compound 108]”, the cytokine result in series [3] (HLA restriction B15) is on record as “+”. Further, the ELISpot result in series [2] (HLA restriction B15) is recorded as “+”.

“117 (RHYCYSLY; Human papillomavirus 16) [compound 117]” returned a cytokine in series [3] (HLA restriction A03) of 1. Besides, in series [2] (HLA restriction A03), the ELISpot result is on record as “+”.

Turning to “122 (RPRKLPDLCT; Human papillomavirus 16) [compound 122]”, the cytokine result in series [3] (HLA restriction B07) is on record as “+”. Besides, the ELISpot entry in series [2] (HLA restriction B07) is given as “+”.

As to IRTLEDLLMGT [compound 33], in the series with HPV16-positive cells (HLA restriction A02), the cytotox result is “+”.

As for LLMGTLGIVCP [compound 25], the cytotox entry in the series with HPV16-positive cells (HLA restriction A02) is reported as “+”.

On to LMGTLGIVCPI [compound 12], for which the cytotox result in the series on HPV16-positive cells (HLA restriction A02) is reported as “+”.

MGTLGIVCPI [compound 14]: the cytotox result in the series with HPV16-positive cells (HLA restriction A02) is on record as “+”.

As for RLCVQSTHV [compound 11], the cytotox entry in the series with HPV16-positive cells (HLA restriction A02) was “+”.

Turning to TTIHDIILECV [compound 30], the cytotox entry in the series with HPV16-positive cells (HLA restriction A02) is “+”.

YMLDLQPE [compound 13]: the cytotox entry in the series on HPV16-positive cells (HLA restriction A02) was “+”.

The values above are taken from patent publication US20260240975A1, “VALIDATED HPV16-DERIVED S[…]” (Deutsches Krebsforschungszentrum Stiftung des öffentlichen …, priority 2023, published 2026).
